Assay results taken from article PMC5142369 (Hypertension (Dallas, Tex. : 1979), 2016).

Biological target: T1, aldosterone synthase (CYP11B2) (Homo sapiens, UniProt P19099)
T1 sequence (P19099 25-503): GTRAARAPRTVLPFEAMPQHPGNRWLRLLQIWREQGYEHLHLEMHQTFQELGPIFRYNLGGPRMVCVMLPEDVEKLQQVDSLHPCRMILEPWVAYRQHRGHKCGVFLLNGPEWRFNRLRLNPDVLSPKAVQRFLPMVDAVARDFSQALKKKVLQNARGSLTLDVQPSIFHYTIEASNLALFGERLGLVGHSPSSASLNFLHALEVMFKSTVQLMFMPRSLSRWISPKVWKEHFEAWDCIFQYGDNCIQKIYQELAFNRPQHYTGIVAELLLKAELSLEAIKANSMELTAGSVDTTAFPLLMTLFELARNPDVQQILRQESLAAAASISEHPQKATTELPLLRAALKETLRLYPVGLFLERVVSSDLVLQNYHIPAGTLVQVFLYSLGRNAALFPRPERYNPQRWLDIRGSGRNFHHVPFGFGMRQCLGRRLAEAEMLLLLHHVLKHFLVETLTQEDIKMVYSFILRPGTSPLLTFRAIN
Experiment: aldosterone production by cells expressing the recombinant enzyme
Format: cell-based

## CCC(=O)N[C@@H]1CCCc2c(-c3ccc4c(c3)CCC(=O)N4C)cncc21 [RO6836191]
  Ki: 13 nM
